Measured values published in paper PMC5399447, “Neuroprotective pentapeptide CN-105 is associated with reduced sterile inflammation and improved functional outcomes in a traumatic brain injury murine model” (Scientific Reports, 2017).

System: 84 genes related to inflammatory and autoimmune processes
Assay: Mouse Inflammatory Response and Autoimmunity PCR Array, whole brain
Format: in vivo
Set-up: key to Il9 ΔCt value, S-CN-105 / Il8ra ΔCt value, S-CN-105 / Il1rn ΔCt value, S-CN-105 / Il1f10 ΔCt value, S-CN-105 / Crp ΔCt value, S-CN-105: *: Indicate mRNA expression was below the level of detection
Conditions: brain 24 h
Method: Frozen, pulverized whole brain tissue was processed for RNA extraction from a separate cohort of treated and untreated injured animals on days 1 post-injury(CN-105, n = 4; vehicle, n = 3; Control(sham-operated), n = 3). Total RNA was extracted from frozen, pulverized whole brain tissue using RNeasy Lipid Tissue Mini Kit(Qiagen, Valencia, CA). RNA quantity and quality was assessed with the NanoDrop ND-1000 spectrophotometer(NanoDrop Technologies, Inc., Wilmington, DE) and by agarose gel electrophoresis. Only samples with a 260/280 ratio between 1.9–2.1, and a 260/230 ratio greater than 2.0, were further processed. First strand complementary DNA(cDNA) was generated from 2 μg total RNA using the RT[2] First strand kit(SABiosciences, Frederick, MD.)
Gene expression was measured using the Mouse Inflammatory Response and Autoimmunity PCR Array(SABiosciences, Frederick, MD), which profiles the expression of 84 genes related to inflammatory and autoimmune processes. RT-PCR was performed according to manufacturer’s instructions Quality of the cDNA and PCR efficiency was verified by housekeeping genes and RT-PCR controls included in the PCR Array.
Raw RT-PCR data were analyzed using the Web-Based PCR Array Data Analysis software(SABiosciences). ΔCt values and ΔΔCt - based fold-change were calculated from raw threshold cycle data, using beta-actin and glyceraldehyde 3-phosphate dehydrogenase(GAPDH) as internal standards for normalization. Fold changes were then normalized against sham-operated controls.

Ac-VSRRR-amide [CN-105] was tested, and the “Fos fold change TBI-CN-105/S-v” value (TBI CN-105 vs sham vehicle) was 1.1, the “Hdac4 fold change TBI-CN-105/S-v” value (TBI CN-105 vs sham vehicle) was 13.9 and the “Ifng fold change TBI-CN-105/S-v” value (TBI CN-105 vs sham vehicle) was 59.7. The “Il1a fold change TBI-CN-105/S-v” value (TBI CN-105 vs sham vehicle) was 37.7, the “Il1b fold change TBI-CN-105/S-v” value (TBI CN-105 vs sham vehicle) was 416.6 and the “Il1f10 fold change TBI-CN-105/S-v” value (TBI CN-105 vs sham vehicle) was 352.3. The “Il1r1 fold change TBI-CN-105/S-v” value (TBI CN-105 vs sham vehicle) was −6.2, the “Il1rap fold change TBI-CN-105/S-v” value (TBI CN-105 vs sham vehicle) was −37.5 and the “Il1rn fold change TBI-CN-105/S-v” value (TBI CN-105 vs sham vehicle) was 74.2. The “Il6 fold change TBI-CN-105/S-v” value (TBI CN-105 vs sham vehicle) was 13.2, the “Il6ra fold change TBI-CN-105/S-v” value (TBI CN-105 vs sham vehicle) was 47.9 and the “Il7 fold change TBI-CN-105/S-v” value (TBI CN-105 vs sham vehicle) was 5569.8. The “Il8ra fold change TBI-CN-105/S-v” value (TBI CN-105 vs sham vehicle) was 196.8, the “Il8rb fold change TBI-CN-105/S-v” value (TBI CN-105 vs sham vehicle) was 658.4 and the “Il9 fold change TBI-CN-105/S-v” value (TBI CN-105 vs sham vehicle) was 1155.5. The “Il10 fold change TBI-CN-105/S-v” value (TBI CN-105 vs sham vehicle) was 82.2, the “Il10rb fold change TBI-CN-105/S-v” value (TBI CN-105 vs sham vehicle) was 1.5 and the “Il18 fold change TBI-CN-105/S-v” value (TBI CN-105 vs sham vehicle) was −9.5. The “Il18rap fold change TBI-CN-105/S-v” value (TBI CN-105 vs sham vehicle) was 58.6, the “Il22 fold change TBI-CN-105/S-v” value (TBI CN-105 vs sham vehicle) was 77.8 and the “Il22ra2 fold change TBI-CN-105/S-v” value (TBI CN-105 vs sham vehicle) was 3448.3. For the same substance, the “Il23a fold change TBI-CN-105/S-v” value (TBI CN-105 vs sham vehicle) was 838.4, the “Il23r fold change TBI-CN-105/S-v” value (TBI CN-105 vs sham vehicle) was 7.2 and the “Itgb2 fold change TBI-CN-105/S-v” value (TBI CN-105 vs sham vehicle) was 9.6. For the same substance, the “Lta fold change TBI-CN-105/S-v” value (TBI CN-105 vs sham vehicle) was 917.0, the “Ltb fold change TBI-CN-105/S-v” value (TBI CN-105 vs sham vehicle) was 75.7 and the “Ly96 fold change TBI-CN-105/S-v” value (TBI CN-105 vs sham vehicle) was 19.9. The “Myd88 fold change TBI-CN-105/S-v” value (TBI CN-105 vs sham vehicle) was 8.5, the “Nfatc3 fold change TBI-CN-105/S-v” value (TBI CN-105 vs sham vehicle) was 364.7 and the “Nfkb1 fold change TBI-CN-105/S-v” value (TBI CN-105 vs sham vehicle) was −3.1. For the same substance, the “Nos2 fold change TBI-CN-105/S-v” value (TBI CN-105 vs sham vehicle) was 1779.4, the “Nr3c1 fold change TBI-CN-105/S-v” value (TBI CN-105 vs sham vehicle) was −17.8 and the “Ripk2 fold change TBI-CN-105/S-v” value (TBI CN-105 vs sham vehicle) was 30.1. For the same substance, the “Tirap fold change TBI-CN-105/S-v” value (TBI CN-105 vs sham vehicle) was 14.0, the “Tlr1 fold change TBI-CN-105/S-v” value (TBI CN-105 vs sham vehicle) was 15.4 and the “Tlr2 fold change TBI-CN-105/S-v” value (TBI CN-105 vs sham vehicle) was 10.0. The “Tlr3 fold change TBI-CN-105/S-v” value (TBI CN-105 vs sham vehicle) was 3.9, the “Tlr4 fold change TBI-CN-105/S-v” value (TBI CN-105 vs sham vehicle) was 6.5 and the “Tlr5 fold change TBI-CN-105/S-v” value (TBI CN-105 vs sham vehicle) was 2.5. For the same substance, the “Tlr6 fold change TBI-CN-105/S-v” value (TBI CN-105 vs sham vehicle) was 14.9, the “Tlr7 fold change TBI-CN-105/S-v” value (TBI CN-105 vs sham vehicle) was 546.2 and the “Tnf fold change TBI-CN-105/S-v” value (TBI CN-105 vs sham vehicle) was 1367.7. For the same substance, the “Tnfsf14 fold change TBI-CN-105/S-v” value (TBI CN-105 vs sham vehicle) was 365.9, the “Tollip fold change TBI-CN-105/S-v” value (TBI CN-105 vs sham vehicle) was −3.2 and the “Bcl6 ΔCt value, S-CN-105” value (sham + CN-105 0.05 mg/kg iv) was 6.6E − 02. The “C3ar1 ΔCt value, S-CN-105” value (sham + CN-105 0.05 mg/kg iv) was 4.1E − 03, the “C3 ΔCt value, S-CN-105” value (sham + CN-105 0.05 mg/kg iv) was 7.0E − 04 and the “C4b ΔCt value, S-CN-105” value (sham + CN-105 0.05 mg/kg iv) was 7.0E − 03. For the same substance, the “Ccl1 ΔCt value, S-CN-105” value (sham + CN-105 0.05 mg/kg iv) was 2.3E − 05, the “Ccl2 ΔCt value, S-CN-105” value (sham + CN-105 0.05 mg/kg iv) was 8.3E − 04 and the “Ccl3 ΔCt value, S-CN-105” value (sham + CN-105 0.05 mg/kg iv) was 8.0E − 04. The “Ccl4 ΔCt value, S-CN-105” value (sham + CN-105 0.05 mg/kg iv) was 3.8E − 04, the “Ccl5 ΔCt value, S-CN-105” value (sham + CN-105 0.05 mg/kg iv) was 1.1E − 03 and the “Ccl7 ΔCt value, S-CN-105” value (sham + CN-105 0.05 mg/kg iv) was 1.6E − 03. The “Ccl8 ΔCt value, S-CN-105” value (sham + CN-105 0.05 mg/kg iv) was 2.1E − 03, the “Ccl11 ΔCt value, S-CN-105” value (sham + CN-105 0.05 mg/kg iv) was 2.5E − 04 and the “Ccl12 ΔCt value, S-CN-105” value (sham + CN-105 0.05 mg/kg iv) was 6.5E − 03. The “Ccl17 ΔCt value, S-CN-105” value (sham + CN-105 0.05 mg/kg iv) was 4.2E − 03, the “Ccl19 ΔCt value, S-CN-105” value (sham + CN-105 0.05 mg/kg iv) was 2.9E − 02 and the “Ccl20 ΔCt value, S-CN-105” value (sham + CN-105 0.05 mg/kg iv) was 1.1E − 04. The “Ccl22 ΔCt value, S-CN-105” value (sham + CN-105 0.05 mg/kg iv) was 3.8E − 04, the “Ccl24 ΔCt value, S-CN-105” value (sham + CN-105 0.05 mg/kg iv) was 9.7E − 05 and the “Ccl25 ΔCt value, S-CN-105” value (sham + CN-105 0.05 mg/kg iv) was 1.4E − 02. The “Ccr1 ΔCt value, S-CN-105” value (sham + CN-105 0.05 mg/kg iv) was 7.1E − 04, the “Ccr2 ΔCt value, S-CN-105” value (sham + CN-105 0.05 mg/kg iv) was 5.5E − 04 and the “Ccr3 ΔCt value, S-CN-105” value (sham + CN-105 0.05 mg/kg iv) was 2.1E − 03. The “Ccr4 ΔCt value, S-CN-105” value (sham + CN-105 0.05 mg/kg iv) was 6.0E − 06, the “Ccr7 ΔCt value, S-CN-105” value (sham + CN-105 0.05 mg/kg iv) was 2.1E − 04 and the “Cd40lg ΔCt value, S-CN-105” value (sham + CN-105 0.05 mg/kg iv) was 6.9E − 05. The “Cd40 ΔCt value, S-CN-105” value (sham + CN-105 0.05 mg/kg iv) was 8.3E − 04, the “Cebpb ΔCt value, S-CN-105” value (sham + CN-105 0.05 mg/kg iv) was 1.1E − 01 and the “Crp ΔCt value, S-CN-105” value (sham + CN-105 0.05 mg/kg iv) was “*”. The “Csf1 ΔCt value, S-CN-105” value (sham + CN-105 0.05 mg/kg iv) was 1.9E − 02, the “Cxcl1 ΔCt value, S-CN-105” value (sham + CN-105 0.05 mg/kg iv) was 1.6E − 04 and the “Cxcl2 ΔCt value, S-CN-105” value (sham + CN-105 0.05 mg/kg iv) was 2.8E − 04. For the same substance, the “Cxcl3 ΔCt value, S-CN-105” value (sham + CN-105 0.05 mg/kg iv) was 2.3E − 05, the “Cxcl5 ΔCt value, S-CN-105” value (sham + CN-105 0.05 mg/kg iv) was 2.5E − 03 and the “Cxcl9 ΔCt value, S-CN-105” value (sham + CN-105 0.05 mg/kg iv) was 1.0E − 04. For the same substance, the “Cxcl10 ΔCt value, S-CN-105” value (sham + CN-105 0.05 mg/kg iv) was 1.9E − 03, the “Cxcl11 ΔCt value, S-CN-105” value (sham + CN-105 0.05 mg/kg iv) was 9.0E − 05 and the “Cxcr4 ΔCt value, S-CN-105” value (sham + CN-105 0.05 mg/kg iv) was 6.6E − 03. For the same substance, the “Fasl ΔCt value, S-CN-105” value (sham + CN-105 0.05 mg/kg iv) was 1.9E − 04, the “Flt3l ΔCt value, S-CN-105” value (sham + CN-105 0.05 mg/kg iv) was 3.0E − 03 and the “Fos ΔCt value, S-CN-105” value (sham + CN-105 0.05 mg/kg iv) was 2.3E − 01. For the same substance, the “Hdac4 ΔCt value, S-CN-105” value (sham + CN-105 0.05 mg/kg iv) was 9.1E − 02, the “Ifng ΔCt value, S-CN-105” value (sham + CN-105 0.05 mg/kg iv) was 5.8E − 05 and the “Il1a ΔCt value, S-CN-105” value (sham + CN-105 0.05 mg/kg iv) was 1.9E − 03. The “Il1b ΔCt value, S-CN-105” value (sham + CN-105 0.05 mg/kg iv) was 2.0E − 03, the “Il1f10 ΔCt value, S-CN-105” value (sham + CN-105 0.05 mg/kg iv) was “*” and the “Il1r1 ΔCt value, S-CN-105” value (sham + CN-105 0.05 mg/kg iv) was 1.2E − 02. The “Il1rap ΔCt value, S-CN-105” value (sham + CN-105 0.05 mg/kg iv) was 4.4E − 02, the “Il1rn ΔCt value, S-CN-105” value (sham + CN-105 0.05 mg/kg iv) was “*” and the “Il6ra ΔCt value, S-CN-105” value (sham + CN-105 0.05 mg/kg iv) was 4.9E − 03. The “Il6 ΔCt value, S-CN-105” value (sham + CN-105 0.05 mg/kg iv) was 1.1E − 04, the “Il7 ΔCt value, S-CN-105” value (sham + CN-105 0.05 mg/kg iv) was 3.2E − 04 and the “Il8ra ΔCt value, S-CN-105” value (sham + CN-105 0.05 mg/kg iv) was “*”. For the same substance, the “Il8rb ΔCt value, S-CN-105” value (sham + CN-105 0.05 mg/kg iv) was 6.1E − 05, the “Il9 ΔCt value, S-CN-105” value (sham + CN-105 0.05 mg/kg iv) was “*” and the “Il10rb ΔCt value, S-CN-105” value (sham + CN-105 0.05 mg/kg iv) was 3.0E − 02. For the same substance, the “Il10 ΔCt value, S-CN-105” value (sham + CN-105 0.05 mg/kg iv) was 1.1E − 04, the “Il18rap ΔCt value, S-CN-105” value (sham + CN-105 0.05 mg/kg iv) was 4.5E − 05 and the “Il18 ΔCt value, S-CN-105” value (sham + CN-105 0.05 mg/kg iv) was 1.8E − 01.
